Values joined by “and” are separate entries in the source; they are usually repeats but may differ in a detail not shown here. Identical values can stand only once. Toxic doses and inconclusive results are not listed. No stated cut-off is given here; in the data, active means T/C of 150% or more; inactive means T/C below 125%.
System: L1210 leukemia ip in BDF1 mice, survival T/C
Experiment: NCI In Vivo Anticancer Drug Screen. Data for tumor model L1210 Leukemia (intraperitoneal) in B6D2F1 (BDF1) mice
Details: endpoint: mean survival time, higher = longer survival
In short: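 Ratio derived from survival: compound-dosed mice over vehicle-dosed mice, all bearing a transplantable tumor.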

[1] = dose: 6.25 mg/kg/injection, schedule: Q01DX009 (ip), vehicle: saline with Tween-80
[2] = dose: 12.5 mg/kg/injection, schedule: Q01DX009 (ip), vehicle: saline with Tween-80
[3] = dose: 50.0 mg/kg/injection, schedule: Q04DX002 (ip), vehicle: saline with Tween-80
[4] = dose: 100.0 mg/kg/injection, schedule: Q04DX002 (ip), vehicle: saline with Tween-80
[5] = dose: 100.0 mg/kg/injection, schedule: Q01DX001 (ip), vehicle: saline
[6] = dose: 100.0 mg/kg/injection, schedule: Q01DX009 (ip), vehicle: saline with Tween-80
[7] = dose: 200.0 mg/kg/injection, schedule: Q01DX001 (ip), vehicle: saline
[8] = dose: 200.0 mg/kg/injection, schedule: Q01DX009 (ip), vehicle: saline with Tween-80
[9] = dose: 400.0 mg/kg/injection, schedule: Q01DX001 (ip), vehicle: saline
[10] = dose: 400.0 mg/kg/injection, schedule: Q01DX009 (ip), vehicle: saline with Tween-80
[11] = dose: 100.0 mg/kg/injection, schedule: Q04DX003 (ip), vehicle: saline with Tween-80
[12] = dose: 200.0 mg/kg/injection, schedule: Q04DX003 (ip), vehicle: saline with Tween-80
[13] = dose: 400.0 mg/kg/injection, schedule: Q04DX003 (ip), vehicle: saline with Tween-80
[14] = dose: 100.0 mg/kg/injection, schedule: Q01DX009 (ip), vehicle: Klucel (hydroxypropylcellulose) (HPC)
[15] = dose: 100.0 mg/kg/injection, schedule: Q04DX003 (ip), vehicle: Klucel (hydroxypropylcellulose) (HPC)
[16] = dose: 200.0 mg/kg/injection, schedule: Q01DX009 (ip), vehicle: Klucel (hydroxypropylcellulose) (HPC)
[17] = dose: 200.0 mg/kg/injection, schedule: Q04DX003 (ip), vehicle: Klucel (hydroxypropylcellulose) (HPC)
[18] = dose: 400.0 mg/kg/injection, schedule: Q01DX009 (ip), vehicle: Klucel (hydroxypropylcellulose) (HPC)
[19] = dose: 400.0 mg/kg/injection, schedule: Q04DX003 (ip), vehicle: Klucel (hydroxypropylcellulose) (HPC)
[20] = dose: 50.0 mg/kg/injection, schedule: Q01DX001 (ip), vehicle: saline

Measured: T/C

S=C=NCCCCCCCCCCCCN=C=S
inactive: [1] 101 % of control | [2] 93 % of control | dose: 25.0 mg/kg/injection, schedule: Q04DX002 (ip), vehicle: saline with Tween-80 114 % of control | [3] 111 % of control | [4] 101 % of control

O=C1NC(=O)C2(N1)C1CC3CC(C1)CC2C3 (stereo unspecified)
inactive: dose: 100.0 mg/kg/injection, schedule: Q01DX009 (ip), vehicle: alcohol 94 % of control | dose: 100.0 mg/kg/injection, schedule: Q04DX003 (ip), vehicle: alcohol 96 % of control | dose: 200.0 mg/kg/injection, schedule: Q01DX009 (ip), vehicle: alcohol 98 % of control | dose: 200.0 mg/kg/injection, schedule: Q04DX003 (ip), vehicle: alcohol 102 % of control | dose: 400.0 mg/kg/injection, schedule: Q01DX009 (ip), vehicle: alcohol 87 % of control | dose: 400.0 mg/kg/injection, schedule: Q04DX003 (ip), vehicle: alcohol 96 % of control

CCC(C)C(CCCCN1CCOCC1)(CNC(=O)CN(CC)CC)c1cccc2ccccc12 (stereo unspecified)
inactive: dose: 12.5 mg/kg/injection, schedule: Q04DX003 (ip), vehicle: saline 104 % of control | dose: 25.0 mg/kg/injection, schedule: Q04DX003 (ip), vehicle: saline 98 % of control | dose: 50.0 mg/kg/injection, schedule: Q04DX003 (ip), vehicle: saline 108 % of control

COc1ccc(C(=O)CSc2cc[o+]cc2)cc1
inactive: [5] 95 % of control | [6] 94 % of control | dose: 100.0 mg/kg/injection, schedule: Q04DX003 (ip), vehicle: saline 95 % of control | [7] 97 % of control | [8] 104 % of control | dose: 200.0 mg/kg/injection, schedule: Q04DX003 (ip), vehicle: saline 92 % of control | [9] 106 % of control | [10] 90 % of control | dose: 400.0 mg/kg/injection, schedule: Q04DX003 (ip), vehicle: saline 97 % of control

CC1(C)N=C(N)N=C(N)N1c1ccc(CCc2ccccc2)c(Cl)c1
inactive: dose: 3.13 mg/kg/injection, schedule: Q01DX009 (ip), vehicle: Klucel (hydroxypropylcellulose) (HPC) 100 % of control | dose: 6.25 mg/kg/injection, schedule: Q01DX009 (ip), vehicle: Klucel (hydroxypropylcellulose) (HPC) 104 % of control | dose: 12.5 mg/kg/injection, schedule: Q01DX009 (ip), vehicle: Klucel (hydroxypropylcellulose) (HPC) 104 % of control | dose: 12.5 mg/kg/injection, schedule: Q04DX003 (ip), vehicle: Klucel (hydroxypropylcellulose) (HPC) 93 % of control | dose: 25.0 mg/kg/injection, schedule: Q01DX009 (ip), vehicle: Klucel (hydroxypropylcellulose) (HPC) 107 % of control | dose: 25.0 mg/kg/injection, schedule: Q04DX003 (ip), vehicle: Klucel (hydroxypropylcellulose) (HPC) 93 % of control | dose: 50.0 mg/kg/injection, schedule: Q04DX003 (ip), vehicle: Klucel (hydroxypropylcellulose) (HPC) 94 % of control

CC(CN1CCOCC1)O[Si](C)(C)C (stereo unspecified)
inactive: dose: 50.0 mg/kg/injection, schedule: Q01DX009 (ip), vehicle: saline 92 % of control | dose: 100.0 mg/kg/injection, schedule: Q01DX009 (ip), vehicle: saline 96 % of control | dose: 200.0 mg/kg/injection, schedule: Q01DX009 (ip), vehicle: saline 96 % of control

CC(=O)c1ccc2c3c(cccc13)CC2
inactive: [6] 102 % of control | [11] 88 % of control | [8] 98 % of control | [12] 104 % of control | [10] 101 % of control | [13] 97 % of control

Cc1ccc(Nc2ccc([N+](=O)[O-])cc2[N+](=O)[O-])c(C)c1
inactive: [14] 94 % of control | [15] 96 % of control | [16] 101 % of control | [17] 91 % of control | [18] 103 % of control | [19] 98 % of control

COc1ccccc1NC(=O)OCC#CCOC(=O)Nc1ccccc1OC
inactive: [15] 91 % of control | [17] 95 % of control | [19] 91 % of control

COC(=O)c1ccccc1N=NNc1ccc(C(F)(F)F)c([N+](=O)[O-])c1
inactive: [11] 98 % of control | [12] 103 % of control | [13] 88 % of control

CC(=O)Nc1cc(Cl)cc2c1-c1c(Cl)cc(Cl)cc1C2
inactive: [14] 92 % of control | [15] 92 % of control | [17] 105 % of control | [19] 105 % of control

O=C(O)CN1C(=O)C2C3C=CC(C3)C2C1=O (stereo unspecified)
inactive: [11] 97 % of control | [12] 94 % of control | [13] 94 % of control

CCCCOC(=O)c1cccnc1
inactive: dose: 50.0 mg/kg/injection, schedule: Q04DX003 (ip), vehicle: saline with Tween-80 97 % of control | [11] 94 % of control and 102 % of control | [12] 103 % of control | [13] 91 % of control

CSc1nc(N)nc2nc(C)c(C)cc12
inactive: dose: 100.0 mg/kg/injection, schedule: Q01DX Z (ip), vehicle: methylcellulose (MC) 90 % of control | dose: 200.0 mg/kg/injection, schedule: Q01DX Z (ip), vehicle: methylcellulose (MC) 89 % of control

CC(CC(C)O)=NCCN=C(C)CC(C)O.[Ni] (stereo unspecified)
inactive: [1] 108 % of control | [2] 89 % of control

O=c1[nH]c2c(N3CCOCC3)cccc2o1
inactive: dose: 25.0 mg/kg/injection, schedule: Q04DX002 (ip), vehicle: Klucel (hydroxypropylcellulose) (HPC) 93 % of control | dose: 50.0 mg/kg/injection, schedule: Q04DX002 (ip), vehicle: Klucel (hydroxypropylcellulose) (HPC) 97 % of control | dose: 100.0 mg/kg/injection, schedule: Q04DX002 (ip), vehicle: Klucel (hydroxypropylcellulose) (HPC) 97 % of control

C=CCOC(=O)Nc1ccccc1
inactive: dose: 100.0 mg/kg/injection, schedule: Q01DX001 (ip), vehicle: Klucel (hydroxypropylcellulose) (HPC) 92 % of control and 90 % of control | [14] 106 % of control | dose: 200.0 mg/kg/injection, schedule: Q01DX001 (ip), vehicle: Klucel (hydroxypropylcellulose) (HPC) 93 % of control and 94 % of control | [16] 95 % of control | dose: 300.0 mg/kg/injection, schedule: Q01DX001 (ip), vehicle: Klucel (hydroxypropylcellulose) (HPC) 97 % of control | [18] 101 % of control

O=C(Nc1cccc(Cl)c1Cl)Oc1ccc(F)cc1Cl
inactive: [14] 108 % of control | [16] 108 % of control | [18] 113 % of control

COc1[nH]c(=O)[nH]c(=O)c1OP(=O)(OC)OC
inactive: [20] 98 % of control | [5] 98 % of control | [7] 98 % of control | [9] 89 % of control

C(=C(c1ccccc1)c1ccccc1)C1=NCCS1
inactive: [3] 108 % of control | dose: 100.0 mg/kg/injection, schedule: Q03DX002 (ip), vehicle: saline with Tween-80 98 % of control | [4] 101 % of control | dose: 200.0 mg/kg/injection, schedule: Q04DX002 (ip), vehicle: saline with Tween-80 104 % of control | dose: 400.0 mg/kg/injection, schedule: Q03DX002 (ip), vehicle: saline with Tween-80 117 % of control

O=C(CCCC(=O)N/N=C/c1ccccc1C(=O)O)N/N=C\c1ccccc1C(=O)O
inactive: [20] 104 % of control | [5] 102 % of control | [7] 102 % of control | [9] 98 % of control
